Data from ChEMBL document CHEMBL1149448, “Synthesis and structure-activity relationships of a new series of 2alpha-substituted trans-4,5-dimethyl-4-(3-hydroxyphenyl)piperidine as mu-selective opioid antagonists” (Bioorg Med Chem Lett, 2006).

Experiments:
Mu-type opioid receptor [1] = target: T1, Mu-type opioid receptor (Homo sapiens, UniProt P35372); test: Displacement of [3H]diprenorphine from human cloned mu opioid receptor
[2] = target: Kappa-type opioid receptor (Homo sapiens, UniProt P41145); test: Displacement of [3H]diprenorphine from human cloned kappa opioid receptor
[3] = target: Delta-type opioid receptor (Homo sapiens, UniProt P41143); test: Displacement of [3H]diprenorphine from human cloned delta opioid receptor
Mu-type opioid receptor [4] = target: T1, Mu-type opioid receptor; test: Inhibition of loperamide-stimulated [35S]GTP-gamma-S binding to membranes containing mu opioid receptor; format: functional

T1 sequence (P35372 whole entry): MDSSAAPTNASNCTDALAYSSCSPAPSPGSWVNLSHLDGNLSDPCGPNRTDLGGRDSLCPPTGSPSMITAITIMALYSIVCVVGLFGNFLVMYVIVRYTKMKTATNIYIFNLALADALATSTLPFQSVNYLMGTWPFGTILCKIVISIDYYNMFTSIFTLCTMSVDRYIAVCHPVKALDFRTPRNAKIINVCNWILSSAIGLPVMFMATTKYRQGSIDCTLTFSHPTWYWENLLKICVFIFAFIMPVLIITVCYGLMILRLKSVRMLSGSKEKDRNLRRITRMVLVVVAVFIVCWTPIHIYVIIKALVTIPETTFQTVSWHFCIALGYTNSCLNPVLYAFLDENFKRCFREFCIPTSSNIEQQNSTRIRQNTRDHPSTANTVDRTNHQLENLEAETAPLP
Sequence of Delta-type opioid receptor (P41143 whole entry): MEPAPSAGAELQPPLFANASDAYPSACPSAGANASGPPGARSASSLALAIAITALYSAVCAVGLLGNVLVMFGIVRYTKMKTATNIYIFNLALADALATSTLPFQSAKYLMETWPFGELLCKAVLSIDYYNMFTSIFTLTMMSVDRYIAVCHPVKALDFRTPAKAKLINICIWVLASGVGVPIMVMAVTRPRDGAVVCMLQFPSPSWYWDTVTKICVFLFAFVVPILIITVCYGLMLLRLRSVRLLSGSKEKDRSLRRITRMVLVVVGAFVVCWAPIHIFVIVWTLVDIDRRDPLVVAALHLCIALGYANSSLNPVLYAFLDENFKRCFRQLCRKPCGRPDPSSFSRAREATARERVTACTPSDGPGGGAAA
Sequence of Kappa-type opioid receptor (P41145 whole entry): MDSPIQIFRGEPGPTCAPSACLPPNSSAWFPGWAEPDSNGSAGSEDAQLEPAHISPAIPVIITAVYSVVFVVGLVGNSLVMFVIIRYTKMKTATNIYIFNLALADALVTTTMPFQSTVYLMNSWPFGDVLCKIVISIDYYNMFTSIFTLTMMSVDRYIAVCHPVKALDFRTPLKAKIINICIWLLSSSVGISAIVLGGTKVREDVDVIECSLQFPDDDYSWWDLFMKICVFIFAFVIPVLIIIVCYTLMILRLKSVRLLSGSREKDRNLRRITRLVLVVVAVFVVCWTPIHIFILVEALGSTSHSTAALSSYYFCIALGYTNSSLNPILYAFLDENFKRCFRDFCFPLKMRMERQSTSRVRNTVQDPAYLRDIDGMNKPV

Compound | Ki (Mu-type opioid receptor [1]) [nM] | Ki [2] [nM] | Ki [3] [nM] | IC50 (Mu-type opioid receptor [4]) [nM]
C[C@H]1CN(CCc2ccccc2)[C@H](CCN2CCCC2)C[C@@]1(C)c1cccc(O)c1 | > 1000 | > 1000 | > 1000 | > 1000
CCC[C@@H]1C[C@@](C)(c2cccc(O)c2)[C@@H](C)CN1 | 560 | 690 | > 1000 | > 1000
CCC[C@@H]1C[C@@](C)(c2cccc(O)c2)[C@@H](C)CN1Cc1ccccc1 | 700 | 360 | 880 | 170
C[C@H]1CN(CCc2ccccc2)[C@H](CCc2ccccc2)C[C@@]1(C)c1cccc(O)c1 | 160 | 790 | 610 | 210
C[C@H]1CN(CCc2ccccc2)[C@H](c2ccccc2)C[C@@]1(C)c1cccc(O)c1 | 280 | 290 | 260 | > 1000
C[C@H]1CN(CCc2ccccc2)[C@H](CCN)C[C@@]1(C)c1cccc(O)c1 | 780 | 510 | > 1000 | 390
CCC[C@@H]1C[C@@](C)(c2cccc(O)c2)[C@@H](C)CN1CCCc1ccccc1 | 19 | 74 | 180 | 16
C[C@H]1CN(CCc2ccccc2)[C@H](CCNC(=O)c2ccccc2)C[C@@]1(C)c1cccc(O)c1 | 59 | 200 | 710 | 130
CCC[C@@H]1C[C@@](C)(c2cccc(O)c2)[C@@H](C)CN1CCC | 430 | 360 | > 1000 | 320
CCCCN1C[C@H](C)[C@](C)(c2cccc(O)c2)C[C@H]1CCC | 550 | 610 | > 1000 | 290
CCCCCN1C[C@H](C)[C@](C)(c2cccc(O)c2)C[C@H]1CCC | 380 | 570 | > 1000 | 210
CCCCCCN1C[C@H](C)[C@](C)(c2cccc(O)c2)C[C@H]1CCC | 47 | 150 | 340 | 39
CCCC[C@@H]1C[C@@](C)(c2cccc(O)c2)[C@@H](C)CN1CCc1ccccc1 | 110 | 200 | 580 | 120
CCC[C@@H]1C[C@@](C)(c2cccc(O)c2)[C@@H](C)CN1C | 520 | 220 | > 1000 | 170
CCC[C@@H]1C[C@@](C)(c2cccc(O)c2)[C@@H](C)CN1CC |  | 270 | > 1000 | 100
C[C@H]1CN(CCc2ccccc2)[C@H](Cc2ccccc2)C[C@@]1(C)c1cccc(O)c1 | 290 | 920 | 800 | 280
C[C@@H]1C[C@@](C)(c2cccc(O)c2)[C@@H](C)CN1CCc1ccccc1 | 15 | 100 | 65 | 50
CC[C@@H]1C[C@@](C)(c2cccc(O)c2)[C@@H](C)CN1CCc1ccccc1 | 75 | 710 | 680 | 90
CCC[C@@H]1C[C@@](C)(c2cccc(O)c2)[C@@H](C)CN1CCc1ccccc1 | 20 | 110 | 120 | 15
C[C@H]1CN(CCc2ccccc2)[C@H](CCCc2ccccc2)C[C@@]1(C)c1cccc(O)c1 | 230 | 260 | 320 | 360
CCCCCCCN1C[C@H](C)[C@](C)(c2cccc(O)c2)C[C@H]1CCC | 13 | 57 | 80 | 9
CC(=O)NCC[C@@H]1C[C@@](C)(c2cccc(O)c2)[C@@H](C)CN1CCc1ccccc1 | 190 | 620 | > 1000 | 130
CC(C)[C@@H]1C[C@@](C)(c2cccc(O)c2)[C@@H](C)CN1CCc1ccccc1 | 270 | > 1000 | > 1000 | 620
